Results from patent US6696447B2, “Hydroxyphenyl-piperazinyl-methyl-benzamide derivatives for the treatment of pain” (AstraZeneca AB, priority 2000, dated 2004).

Assays:
Format in all cases: biochemical
[1] = target: T1, human δ receptor (HDELTA) (Homo sapiens, UniProt P41143); experiment: GTP[γ]35S binding functional assay, HEK-293S membranes expressing cloned human opioid receptor (HDELTA)
T1 construct: expressed in transfected cells; host or cells: human 293S (HEK-293S) cells, geneticin-selected
Experimental: A. Human 293S cells expressing cloned human μ, δ, and κ receptors and neomycin resistance were grown in suspension at 37° C. and 5% CO2 in shaker flasks containing calcium-free DMEM10% FBS, 5% BCS, 0.1% Pluronic F-68, and 600 μg/ml geneticin.
Cells were pelleted and resuspended in lysis buffer (50 mM Tris, pH 7.0, 2.5 mM EDTA, with PMSF added just prior to use to 0.1 mM from a 0.1 M stock in ethanol), incubated on ice for 15 min, then homogenized with a polytron for 30 sec. The suspension was spun at 1000 g (max) for 10 min at 4° C. The supernatant was saved on ice and the pellets resuspended and spun as before. The supernatants from both spins were combined and spun at 46,000 g(max) for 30 min. The pellets were resuspended in cold Tris buffer (50 mM Tris/Ci, pH 7.0) and spun again. The final pellets were resuspended in membrane buffer (50 mM Tris, 0.32 M sucrose, pH 7.0). Aliquots (1 ml) in polypropylene tubes were frozen in dry ice/ethanol and stored at −70° C. until use. The protein concentrations were determined by a modified Lowry assay with sodium dodecyl sulfate.
(§1) The agonist activity of the compounds is measured by determining the degree to which the compounds receptor complex activates the binding of GTP to G-proteins to which the receptors are coupled. In the GTP binding assay, GTP[γ]^35S is combined with test compounds and membranes from HEK-293S cells expressing the cloned human opioid receptors or from homogenised rat and mouse brain. Agonists stimulate GTP[γ]^35 S binding in these membranes. The EC50 and Emax values of compounds are determined from dose-response curves. Right shifts of the dose response curve by the delta antagonist naltrindole are performed to verify that agonist activity is mediated through delta receptors.

[2] = target: T2, delta receptors, mouse brain membranes (Mus musculus, UniProt P32300); experiment: GTP[γ]35S binding functional assay, homogenised mouse brain
T2 construct: from tissue; host or cells: mouse brain homogenate
Experimental: (§2) B. Mouse and rat brains were weighed and rinsed in ice-cold PBS (containing 2.5 mM EDTA, pH 7.4). The brains were homogenized with a polytron for 15 sec (mouse) or 30 sec (rat) in ice-cold lysis buffer (50 mM Tris, pH 7.0, 2.5 mM EDTA, with phenylmethylsulfonyl fluoride added just prior use to […] from a 0.5M stock in DMSO:ethanol).
as §1

[3] = target: T3, delta receptors, rat brain membranes (Rattus norvegicus, UniProt P33533); experiment: GTP[γ]35S binding functional assay, homogenised rat brain
T3 construct: from tissue; host or cells: rat brain homogenate
Experimental: as §2, §1

T1 sequence (P41143 whole entry): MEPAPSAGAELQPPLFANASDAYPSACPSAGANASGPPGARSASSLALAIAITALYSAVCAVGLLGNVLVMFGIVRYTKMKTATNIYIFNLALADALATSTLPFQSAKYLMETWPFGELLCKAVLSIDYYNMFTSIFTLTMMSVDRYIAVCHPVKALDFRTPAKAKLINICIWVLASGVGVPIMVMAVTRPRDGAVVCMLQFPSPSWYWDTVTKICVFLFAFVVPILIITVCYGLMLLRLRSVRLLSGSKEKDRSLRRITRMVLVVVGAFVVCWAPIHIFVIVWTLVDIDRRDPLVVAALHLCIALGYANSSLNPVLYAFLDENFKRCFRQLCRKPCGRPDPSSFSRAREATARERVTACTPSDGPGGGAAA
T2 sequence (P32300 whole entry): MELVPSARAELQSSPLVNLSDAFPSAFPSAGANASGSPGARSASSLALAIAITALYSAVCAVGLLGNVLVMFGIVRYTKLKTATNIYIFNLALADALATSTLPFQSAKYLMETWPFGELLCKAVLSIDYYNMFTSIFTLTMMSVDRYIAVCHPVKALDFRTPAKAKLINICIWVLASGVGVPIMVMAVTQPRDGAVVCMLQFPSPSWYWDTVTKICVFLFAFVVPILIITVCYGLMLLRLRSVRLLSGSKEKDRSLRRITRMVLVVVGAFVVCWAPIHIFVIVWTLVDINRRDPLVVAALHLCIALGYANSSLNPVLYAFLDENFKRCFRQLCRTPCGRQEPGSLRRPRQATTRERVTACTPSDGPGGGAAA
T3 sequence (P33533 whole entry): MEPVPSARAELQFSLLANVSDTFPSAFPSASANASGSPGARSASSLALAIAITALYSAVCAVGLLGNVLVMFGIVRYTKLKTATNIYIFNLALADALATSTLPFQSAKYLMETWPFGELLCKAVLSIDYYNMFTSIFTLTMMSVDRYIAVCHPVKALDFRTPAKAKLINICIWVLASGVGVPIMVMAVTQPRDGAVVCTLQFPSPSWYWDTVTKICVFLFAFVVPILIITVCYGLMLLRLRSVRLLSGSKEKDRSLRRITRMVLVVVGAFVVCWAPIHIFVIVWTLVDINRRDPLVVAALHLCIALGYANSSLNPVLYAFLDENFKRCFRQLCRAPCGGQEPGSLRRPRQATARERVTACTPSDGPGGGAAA

Structure (SMILES) | Emax [1] | Emax [2] | Emax [3]
CCN(CC)C(=O)c1ccc(C(c2cccc(O)c2)N2CCN(Cc3ccco3)CC2)cc1 (stereo not drawn) [Example 1, N,N-diethyl-4-[[4-(2-furylmethyl)-1-piperazinyl](3-hydroxyphenyl)methyl]benzamide] | 94.8% | 113% | 130%
CCN(CC)C(=O)c1ccc(C(c2cccc(O)c2)N2CCN(Cc3cccs3)CC2)cc1 (stereo not drawn) [Example 2, N,N-diethyl-4-{(3-hydroxyphenyl)[4-(2-thienylmethyl)-1-piperazinyl]methyl}benzamide] | 105% | 118% | 120%
CCN(CC)C(=O)c1ccc(C(c2cccc(O)c2)N2CCN(Cc3ccsc3)CC2)cc1 (stereo not drawn) [Example 3, N,N-diethyl-4-{(3-hydroxyphenyl)[4-(3-thienylmethyl)-1-piperazinyl]methyl}benzamide] | 114% | 122% | 128%
